Reference: patent US7834013B2, “Aminophenylcyclopropyl carboxylic acids and derivatives as agonists to GPR40” (GlaxoSmithKline LLC, priority 2003, dated 2010)
Where a name gives a salt, the structure may show the parent alone.

biological target: T1, GPR40 (Homo sapiens, UniProt O14842); assay: GPR40 SAR Primary Assay (Elk-1/Gal4-luc+ reporter, luciferase activity); assay type: cell-based; settings: stable GPR40 Elk-1/Gal4-luc+ CHO cell line, 5 hours incubation
T1 construct: expressed in transfected cells
Method: An existing stable GPR40 Elk-1/Gal4-luc^+ CHO cell line generated by electroporation and functional cloning was used. Cells were maintained in a humidified incubator at 37° C./5% CO2 in complete media containing DMEM/F12 (Gibco, #11039-021), 5% FBS (Gibco, #16140-071) and 1% Glutamine (Gibco, #25030-081). Cell maintenance passages were made at 1:40 dilution every 3-4 days. Forty eight hours prior to assay, 15e6 cells were added to 200 ml of complete media then seeded into a 1200 cm^2-cell factory and returned to a humidified incubator at 37° C./5% CO2. 20 hours prior to assay, the growth media was removed and replaced with 200 ml of serum-free DMEM/F12 to quiesce background activity. At the time of assay, cells were harvested using non-enzymatic cell dissociation solution (Sigma, #C-5914), washed and counted. The 20 hour starve media was collected and used as condition media for cell assay plating. Cells were plated at a concentration of 10,000 cells/well in a total well volume of […] in black 96-well clear bottom polystyrene plates (CoStar, #3904). Test compounds were prepared as serial dilutions in 100% DMSO, then 1 ul was delivered to each well resulting in a final concentration of 1% DMSO. The plates were then returned to a humidified incubator at 37° C./5% CO2 for 5 hours. Following the incubation, the medium was replaced with 50 ul of a 1:1 mixture of SteadyGlo™ (Promega, #E2550) and dPBS containing 1 mM CaCl2 and 1 mM MgCl2. Plates were then sealed and subjected to dark adaptation at room temperature for 10 minutes. Luciferase activity was measured on a Packard TopCount™ microplate scintillation counter using 2 seconds per well count time.
Data analysis was performed using standard methods.
The Normalization Equation used was 100*(Unknown compound response−Background response)/(Agonist Max response−Background response).
The Curve Fit Function used was y=((Vmax*x^n)/(K^n+x^n))+Y2.
A percent max response and pEC50 were recorded for each compound. Although specific pEC50 values are given, these values should be considered exemplary. Those skilled in the art will appreciate the variability in performing and recording the biological activity assays that are herein described. The compounds of the present invention provide a pEC50 of at least 5.0.

T1 sequence (O14842 whole entry, the tested form may be a part): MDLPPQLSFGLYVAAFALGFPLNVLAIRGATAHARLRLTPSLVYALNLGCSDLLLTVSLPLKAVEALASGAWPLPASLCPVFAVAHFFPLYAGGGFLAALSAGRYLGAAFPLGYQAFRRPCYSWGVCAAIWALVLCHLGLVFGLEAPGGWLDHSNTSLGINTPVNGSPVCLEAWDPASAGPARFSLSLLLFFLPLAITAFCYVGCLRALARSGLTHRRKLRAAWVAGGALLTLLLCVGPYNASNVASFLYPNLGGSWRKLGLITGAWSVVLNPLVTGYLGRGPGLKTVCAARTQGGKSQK

| Compound | EC50 |
| --- | --- |
| O=C(O)[C@H]1C[C@@H]1c1ccc(NCc2cccc(Oc3cccc(C(F)(F)F)c3)c2)cc1 [Example 33, (+)-(trans)-2-(4-{[(3-{[3-(trifluoromethyl)phenyl]oxy}phenyl)methyl]amino}phenyl)cyclopropanecarboxy lic Acid] | 0.0251 µM |
| Cc1ccc(Oc2cccc(CNc3ccc([C@H]4C[C@@H]4C(=O)O)cc3)c2)cc1 [Example 34, (+)-(trans)-2-{4-[({3-[(4-methylphenyl)oxy]phenyl}methyl)amino]phenyl}cyclopropanecarboxylic Acid Trifluoroacetate] | 0.00794 µM |
| Cc1nc(-c2ccc(C(F)(F)F)cc2)sc1CNc1ccc(C2CC2C(=O)N[C@@H](C)c2ccccc2)cc1 (stereo partly drawn) [Example 40, Enantiomerically Enriched (trans)-2-{4-[({4-methyl-2-[4-(trifluoromethyl)phenyl]-1,3-thiazol-5-yl}methyl)amino]phenyl}-N-[(1S)-1-phenylethyl]cyclopropanecarboxamide] | 0.0501 µM |
| Cc1nc(-c2ccc(C(F)(F)F)cc2)sc1CNc1ccc(C2CC2C(=O)NC(C)C)cc1 (stereo not drawn) [Example 53, Enantiomerically Enriched N-isopropyl-2-{4-[({4-methyl-2-[4-(trifluoromethyl)phenyl]-1,3-thiazol-5-yl}methyl)amino]phenyl}cyclopropanecarboxamide] | 0.01 µM |
| O=C(NCC1CC1)C1CC1c1ccc(NCc2cccc(Oc3ccccc3)c2)cc1 (stereo not drawn) [Example 54, Enantiomerically Enriched N-(cyclopropylmethyl)-2-{4-[(3-phenoxybenzyl)amino]phenyl}cyclopropanecarboxamide] | 0.02 µM |
